Test results taken from the supplement of paper PMC10883282.

Assays:
Assay in all cases: relative viability vs DMSO control (72 h) (fraction); higher = more viable cells
SK-ES-1 = test system: SK-ES-1
How it was run: (§1)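 Sarcoma cell lines went into 384-well plates at densities chosen to reach 80–90% confluence. After 24 h, each well received 2.5 µl of serially diluted compound, with source plates running from 10 mM to 0.0002 mM, and the plates were kept 72 h at 37 °C, 5% CO2, alongside 0.1% DMSO vehicle and a 5 µM positive control. Relative viability was derived from ATPLite readings as percent growth and averaged over up to triplicate wells. The data were then rescaled so that 1 stands for full and 0 for none.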

G401 = test system: G401
How it was run: as §1

VA-ES-BJ = test system: VA-ES-BJ
How it was run: as §1

HT1080 = test system: HT1080
How it was run: as §1

SK-LMS-1 = test system: SK-LMS-1
How it was run: as §1

RD-ES = test system: RD-ES
How it was run: as §1

SW982 = test system: SW982
How it was run: as §1

KHOS-NP = test system: KHOS-NP
How it was run: as §1

A204 = test system: A204
How it was run: as §1

HS729 = test system: HS729
How it was run: as §1

SW684 = test system: SW684
How it was run: as §1

SW872 = test system: SW872
How it was run: as §1

CCN1CCN(c2ccc(Nc3cc(N(C)C(=O)Nc4c(Cl)c(OC)cc(OC)c4Cl)ncn3)cc2)CC1 [Infigratinib]
Conditions	relative viability
A204, 85 pM	1.08
A204, 0.000254 µM	1.08
A204, 0.00076 µM	1.08
A204, 0.00229 µM	1.05
A204, 0.00686 µM	0.964
A204, 0.02058 µM	0.825
A204, 0.0617 µM	0.676
A204, 0.1852 µM	0.569
A204, 0.5556 µM	0.559
A204, 1.6667 µM	0.527
A204, 5 µM	0.408
G401, 85 pM	1.048
G401, 0.000254 µM	1.039
G401, 0.00076 µM	1.02
G401, 0.00229 µM	0.9703
G401, 0.00686 µM	0.952
G401, 0.02058 µM	0.8266
G401, 0.0617 µM	0.749
G401, 0.1852 µM	0.649
G401, 0.5556 µM	0.59
G401, 1.6667 µM	0.515
G401, 5 µM	0.33
HS729, 85 pM	1.01
HS729, 0.000254 µM	0.934
HS729, 0.00076 µM	0.942
HS729, 0.00229 µM	0.913
HS729, 0.00686 µM	0.866
HS729, 0.02058 µM	0.788
HS729, 0.0617 µM	0.69
HS729, 0.1852 µM	0.635
HS729, 0.5556 µM	0.604
HS729, 1.6667 µM	0.526
HS729, 5 µM	0.525
HT1080, 85 pM	1.03
HT1080, 0.000254 µM	1.07
HT1080, 0.00076 µM	1.072
HT1080, 0.00229 µM	1.04
HT1080, 0.00686 µM	1.053
HT1080, 0.02058 µM	1.067
HT1080, 0.0617 µM	1.04
HT1080, 0.1852 µM	1.06
HT1080, 0.5556 µM	1.087
HT1080, 1.6667 µM	1.11
HT1080, 5 µM	1.01
KHOS-NP, 85 pM	1.07
KHOS-NP, 0.000254 µM	1.12
KHOS-NP, 0.00076 µM	1.09
KHOS-NP, 0.00229 µM	1.06
KHOS-NP, 0.00686 µM	1.08
KHOS-NP, 0.02058 µM	1.085
KHOS-NP, 0.0617 µM	1.08
KHOS-NP, 0.1852 µM	1.05
KHOS-NP, 0.5556 µM	1.06
KHOS-NP, 1.6667 µM	1.08
KHOS-NP, 5 µM	1.08
RD-ES, 85 pM	0.972
RD-ES, 0.000254 µM	0.95
RD-ES, 0.00076 µM	0.965
RD-ES, 0.00229 µM	0.998
RD-ES, 0.00686 µM	0.981
RD-ES, 0.02058 µM	0.959
RD-ES, 0.0617 µM	0.957
RD-ES, 0.1852 µM	0.959
RD-ES, 0.5556 µM	0.928
RD-ES, 1.6667 µM	0.802
RD-ES, 5 µM	0.783
SK-ES-1, 85 pM	1.03
SK-ES-1, 0.000254 µM	1.07
SK-ES-1, 0.00076 µM	1
SK-ES-1, 0.00229 µM	1.06
SK-ES-1, 0.00686 µM	1.03
SK-ES-1, 0.02058 µM	1.01
SK-ES-1, 0.0617 µM	0.971
SK-ES-1, 0.1852 µM	0.929
SK-ES-1, 0.5556 µM	0.797
SK-ES-1, 1.6667 µM	0.559
SK-ES-1, 5 µM	0.373
SK-LMS-1, 85 pM	1.12
SK-LMS-1, 0.000254 µM	1.11
SK-LMS-1, 0.00076 µM	1.08
SK-LMS-1, 0.00229 µM	1.13
SK-LMS-1, 0.00686 µM	1.1
SK-LMS-1, 0.02058 µM	1.06
SK-LMS-1, 0.0617 µM	1.08
SK-LMS-1, 0.1852 µM	1.11
SK-LMS-1, 0.5556 µM	1.08
SK-LMS-1, 1.6667 µM	1.04
SK-LMS-1, 5 µM	0.952
SW684, 85 pM	1.18
SW684, 0.000254 µM	1.19
SW684, 0.00076 µM	1.19
SW684, 0.00229 µM	1.14
SW684, 0.00686 µM	1.18
SW684, 0.02058 µM	1.18
SW684, 0.0617 µM	1.16
SW684, 0.1852 µM	1.17
SW684, 0.5556 µM	1.15
SW684, 1.6667 µM	1.22
SW684, 5 µM	1.14
SW872, 85 pM	1.09
SW872, 0.000254 µM	1.097
SW872, 0.00076 µM	1.09
SW872, 0.00229 µM	1.06
SW872, 0.00686 µM	1.03
SW872, 0.02058 µM	1.03
SW872, 0.0617 µM	1.06
SW872, 0.1852 µM	1.04
SW872, 0.5556 µM	1.01
SW872, 1.6667 µM	0.882
SW872, 5 µM	0.839
SW982, 85 pM	1.01
SW982, 0.000254 µM	1.07
SW982, 0.00076 µM	1.02
SW982, 0.00229 µM	1.05
SW982, 0.00686 µM	1.05
SW982, 0.02058 µM	1.05
SW982, 0.0617 µM	1.07
SW982, 0.1852 µM	1.061
SW982, 0.5556 µM	0.98
SW982, 1.6667 µM	0.78
SW982, 5 µM	0.732
VA-ES-BJ, 85 pM	1.03
VA-ES-BJ, 0.000254 µM	1.048
VA-ES-BJ, 0.00076 µM	1.03
VA-ES-BJ, 0.00229 µM	1.04
VA-ES-BJ, 0.00686 µM	1.04
VA-ES-BJ, 0.02058 µM	0.977
VA-ES-BJ, 0.0617 µM	1.01
VA-ES-BJ, 0.1852 µM	0.982
VA-ES-BJ, 0.5556 µM	0.949
VA-ES-BJ, 1.6667 µM	0.8949
VA-ES-BJ, 5 µM	0.871
